Laboratory results taken from ChEMBL document CHEMBL1157335, “Aromatic constituents of Uvaria grandiflora” (J Nat Prod, 2006).
Values after ≈ are worked out from the molar mass of the structure shown.

Tested on: Leishmania donovani
Test: Antileishmanial activity against Leishmania donovani promastigotes after 48 hrs by alamar blue assay
Assay type: functional, organism-based

| Compound | IC90 [mg/L] | IC50 [mg/L] |
| --- | --- | --- |
| N=C(N)c1ccc(OCCCCCOc2ccc(C(=N)N)cc2)cc1 [PENTAMIDINE] | 6.6 (≈ 19.4 µM) |  |
| C[C@@H]1[C@H](O)[C@@H](C)/C=C/C=C/C=C/C=C/C=C/C=C/C=C/[C@H](O[C@@H]2O[C@H](C)[C@@H](O)[C@H](N)[C@@H]2O)C[C@@H]2O[C@](O)(C[C@@H](O)C[C@@H](O)[C@H](O)CC[C@@H](O)C[C@@H](O)CC(=O)O[C@H]1C)C[C@H](O)[C@H]2C(=O)O [AMPHOTERICIN B] | 0.34 (≈ 0.368 µM) |  |
| CC(=O)O[C@H]1C(=O)C=COC=C1COC(=O)c1ccccc1 [GRANDIUVARONE A] | 1.5 (≈ 4.96 µM) | 0.7 (≈ 2.32 µM) |
